Source: publication PMC11247627, “Evaluation of Antibacterial Functionalized Dihydropyrimidine Photoaffinity Probes Toward Mechanism of Action Studies” (ACS Medicinal Chemistry Letters, 2024)
In brackets after ≈: the same amount, converted by molar mass. Several values for one entry are separate records, joined by “and”; a condition that tells them apart may be missing. Identical values can stand only once.

Assays:
Format in all cases: cell-based
[1] = test system: Staphylococcus aureus ATCC 43300 (MRSA); assay: Antibacterial broth microdilution assay (MIC), MRSA ATCC 43300; conditions: Staphylococcus aureus; amount inhibiting >95% of growth (A600), 18 h; suffix 'I' = partial growth inhibition at the value, >95% at higher concentrations; read-out: MIC ATCC 43300
Description: (§1) These 24 DHP analogues were then screened for inhibition of Staphylococcus aureus growth using microdilution assays. Growth inhibition was examined in methicillin-sensitive S. aureus (ATCC 12600) and two strains of MRSA (ATCC 33591 and ATCC 43300). Antibiotic controls were included in the screen, including carbenicillin, erythromycin, gentamycin, trimethoprim, and vancomycin, and minimum inhibitory concentrations (MICs) were determined for each compound, which were defined as the concentration required to inhibit >95% of bacterial growth (Table 1).
(§2) Antibacterial Microdilution Assay (MIC Determination)
(§3) 1240 The MIC determination assays were performed in a BSL-2 laboratory with appropriate security and biosafety measures. The MICs were determined using a broth microdilution assay closely following the guidelines of the Clinical and Laboratories Standards Institute (CLSI). MICs were determined in duplicate for two biological replicates using 2-fold serial dilutions of test compounds or commercial antibiotics in cation-adjusted Mueller-Hinton broth. The central 60 wells of 96-well plates were 1245 prepared with the compound of interest at the indicated concentration, where 2 µL of the compound in DMSO were added prior to the addition of the culture. Overnight cultures of the different Staphylococcus aureus strains were diluted to provide an initial inoculum of approximately 5 X 10 5 CFU/mL that was delivered to each well in 198 µL of culture (final DMSO concentration of ~1%). Initial inoculum concentrations were verified by plating to count CFU/mL. Each plate was equipped with 1250 experimental controls for full growth (6 wells) and full growth inhibition (6 wells), and all control wells were in the presence of 1% DMSO. The outer 36 wells were filled with 200 µL of culture each to prevent growth effects on the interior 60 wells. The plates were incubated at 37 °C for 18 hours, at which time they were removed from the incubator and were allowed to equilibrate to room temperature for 30 minutes. Absorbance of each well at 600 nm was then read using a microplate reader to 1255 determine the MIC, and visual confirmation of growth inhibition was also performed. If variation was seen in the experimental values, the highest value of two independent trials was listed.

[2] = test system: Staphylococcus aureus ATCC 12600; assay: Antibacterial broth microdilution assay (MIC), methicillin-sensitive S. aureus ATCC 12600; conditions: Staphylococcus aureus, ATCC12600; amount inhibiting >95% of growth (A600), 18 h; suffix 'I' = partial growth inhibition at the value, >95% at higher concentrations; read-out: MIC ATCC 12600
Description: as §1, §2, §3

[3] = test system: Staphylococcus aureus ATCC 33591 (MRSA); assay: Antibacterial broth microdilution assay (MIC), MRSA ATCC 33591; conditions: Staphylococcus aureus; amount inhibiting >95% of growth (A600), 18 h; suffix 'I' = partial growth inhibition at the value, >95% at higher concentrations; read-out: MIC ATCC 33591
Description: as §1, §2, §3

[4] = MTT cytotoxicity assay, HEK293 viability; conditions: human, HEK293 cells, 24 h treatment
Description: After determining that some of our compounds were quite potent for the inhibition of bacterial growth, we next turned toward assessing broader cytotoxicity trends. […] Further, our previously reported derivatives were also screened for red blood cell (RBC) hemolysis, and the assay indicated a lack of RBC lysis at the highest concentrations tested for all compounds (64 μg/mL).[6] […] This indicates it may have secondary mechanisms of cytotoxicity via nonspecific membrane rupturing activity, albeit, at a much higher concentration than its 2 μg/mL MIC. Next, we examined the compounds’ ability to decrease the viability of an immortalized mammalian cell line (HEK293) using a colorimetric MTT assay.[34] To our surprise, all of the compounds screened produced relatively potent cytotoxicity against this cell line. […] We screened a dihydropyrimidine where the guanidine was substituted with a urea (traditional Biginelli reaction derived), and this compound had no bacterial inhibition but continued to have significant mammalian cytotoxicity, further decoupling the antibacterial activity from mammalian cytotoxicity in these cases. Future studies involving the photoaffinity probes will examine the mechanism by which our compounds exert their growth-inhibiting effects in both bacterial and mammalian cells.
Mammalian cytotoxicity was evaluated using a commercially available MTT Cell proliferation assay 1275 (ATCC 30-1010K; Manassas, VA) following the included protocol. Briefly, Human Embryonic Kidney 293 (HEK-293; ATCC CRL-1353) cells were seeded onto 96 well plates (Nunclon Delta; ThermoFisher 167008; Waltham, MA) coated with Poly-D-Lysine (Thermofisher A3890401) at a density of […] cells per well in 80 µL of Eagle's Minimum Essential Medium (EMEM; ATCC 30-2003) with 10% Fetal Bovine Serum (ATCC 30-2021). Cells were incubated at 37 °C in a 5% CO2 atmosphere and allowed to 1280 adhere overnight, and then treated for 24 h with 20 µL of drugs dissolved in PBS with 0.5% DMSO, at concentrations ranging from 1×10^-4 M to 1×10^-9 M. Following treatment, 10 µL of MTT reagent was added to each well and allowed to incubate at 37 °C for 4 h. Then, 100 μL of detergent reagent was added to all wells, and they were stored at room temperature in the dark for 2 h. Absorbance was then read using a multi-mode spectrophotometer (Spectramax i3X; San Jose, CA) at a wavelength of 570 1285 nm. Raw values were normalized to a 0-100% scale using the maximum and minimum responses. To generate dose-response curves and IC50 values, normalized data were plotted against the log of the drug concentrations and fit to nonlinear curve [log(inhibitor) vs. response – variable slope (four parameters)] using GraphPad Prism version 7.05 (GraphPad Software; San Diego, CA).

[5] = test system: red blood cells (defibrinated sheep blood); assay: Hemolysis assay (red blood cell lysis); conditions: concentration producing >20% hemolysis of red blood cells, 1 h, 37 C
Description: 1260 1.5 mL of mechanically defibrinated sheep blood (Hemostat Labs: DSB100) was placed in a microcentrifuge tube and was centrifuged at 10,000 rpm for ten minutes. Following the removal of the supernatant, the cells were resuspended in 1 mL of phosphate-buffered saline (PBS). This process was repeated two more times. The final suspension was diluted ten-fold with PBS and was aliquoted into microcentrifuge tubes containing the compounds which were previously serial diluted in PBS. TritonX 1265 (1% by volume) served as a positive control, while sterile PBS served as a negative control. All samples were incubated at 37 °C and shaken at 200 rpm for 1 hour. After the 1 hour, the samples were centrifuged at 10,000 rpm for 5 minutes and the absorbance of the supernatant was measured via UV spectroscopy at a 540 nm wavelength.

CCOC(=O)C1=C(c2ccccc2)NC(N)=NC1c1ccccc1[N+](=O)[O-] (stereo not drawn) [6a]
MIC [1]: > 64 µg/mL
MIC [2]: > 64 µg/mL
MIC [3]: > 64 µg/mL

CCOC(=O)C1=C(c2ccccc2)NC(N)=NC1c1cccc([N+](=O)[O-])c1 (stereo not drawn) [6b]
MIC [2]: 64 µg/mL (≈ 175 µM)

CCOC(=O)C1=C(c2ccccc2)NC(N)=NC1c1ccc([N+](=O)[O-])cc1 (stereo not drawn) [6c]
MIC [1]: 64 µg/mL (≈ 175 µM)
MIC [2]: 64 µg/mL (≈ 175 µM)
MIC [3]: 64 µg/mL (≈ 175 µM)

CCOC(=O)C1=C(c2ccccc2)NC(N)=NC1c1cccc(C(F)(F)F)c1 (stereo not drawn) [6d]
MIC [1]: 32 µg/mL (≈ 82.2 µM)
MIC [2]: 32 µg/mL (≈ 82.2 µM)
MIC [3]: 32 µg/mL (≈ 82.2 µM)

CCOC(=O)C1=C(c2ccccc2)NC(N)=NC1c1ccc(C(F)(F)F)cc1 (stereo not drawn) [6e]
MIC [1]: 16 µg/mL (≈ 41.1 µM)
MIC [2]: 16 µg/mL (≈ 41.1 µM)
MIC [3]: 16 µg/mL (≈ 41.1 µM)

CCOC(=O)C1=C(c2ccccc2)NC(N)=NC1c1ccccc1F (stereo not drawn) [6f]
MIC [1]: > 64 µg/mL
MIC [2]: > 64 µg/mL
MIC [3]: > 64 µg/mL

CCOC(=O)C1=C(c2ccccc2)NC(N)=NC1c1cc(Cl)cc(Cl)c1 (stereo not drawn) [6j]
MIC [1]: 8 µg/mL (≈ 20.5 µM)
MIC [2]: 8 µg/mL (≈ 20.5 µM)
IC50 at 24 h [4]: 11 µM and 3.5 µg/mL
lysis20 [5]: >64 µg/mL

CCOC(=O)C1=C(c2ccccc2)NC(N)=NC1c1ccc(C)cc1 (stereo not drawn) [6m]
MIC [1]: > 64 µg/mL
MIC [2]: > 64 µg/mL
MIC [3]: > 64 µg/mL

CCOC(=O)C1=C(c2ccccc2)NC(N)=NC1c1c(C)cccc1C (stereo not drawn) [6n]
MIC [3]: 64 µg/mL (≈ 183 µM)

CCOC(=O)C1=C(c2ccccc2)NC(N)=NC1c1ccc(C)c(C)c1 (stereo not drawn) [6p]
MIC [1]: 32 µg/mL (≈ 91.6 µM)

CCOC(=O)C1=C(c2ccccc2)NC(N)=NC1c1cc(C)cc(C)c1 (stereo not drawn) [6q]
MIC [1]: > 64 µg/mL
MIC [2]: > 64 µg/mL
MIC [3]: > 64 µg/mL

CCOC(=O)C1=C(c2ccccc2)NC(N)=NC1c1cccc(OC)c1 (stereo not drawn) [6t]
MIC [1]: > 64 µg/mL
MIC [2]: > 64 µg/mL
MIC [3]: > 64 µg/mL

CCOC(=O)C1=C(c2ccccc2)NC(N)=NC1c1cc(OC)cc(OC)c1 (stereo not drawn) [6v]
MIC [1]: > 64 µg/mL
MIC [2]: > 64 µg/mL
MIC [3]: > 64 µg/mL

CCOC(=O)C1=C(CC)NC(N)=NC1c1ccc(CC(C)C)cc1 (stereo not drawn) [7c]
MIC [1]: 4 µg/mL (≈ 12.1 µM)
IC50 at 24 h [4]: 11 µM and 3.5 µg/mL
MIC [3]: 8 µg/mL (≈ 24.3 µM)
lysis20 [5]: >64 µg/mL

CCOC(=O)C1=C(CC)NC(N)=NC1c1ccc(-c2ccccc2)cc1 (stereo not drawn) [7d]
MIC [3]: 8 µg/mL (≈ 22.9 µM)
